From patent US20210068395A1, “METHODS OF APPLYING ONE OR MORE CERTAIN HETEROARYL-1,2,4-TRIAZOLE AND HETEROARYL-TETRAZOLE COMPOUNDS TO CONTROL DAMAGE ON PLANTS, PROPAGATION MATERIAL THEREOF, AND PLANT DERIVED PRODUCTS” (SYNGENTA CROP PROTECTION AG, priority 2018, published 2021)
Read-outs that look alike come from different tables or passages of the source.

Legend:
Format in all cases: in vivo
[1] = system: Diabrotica balteata (corn root worm); assay: Diabrotica balteata (corn root worm), sprayed maize sprouts; settings: 96 h, read-out: control in at least one of the two categories (mortality or growth inhibition)
Description: Maize sprouts placed onto an agar layer in 24-well microtiter plates were treated with aqueous test solutions prepared from 10,000 ppm DMSO stock solutions by spraying. After drying, the plates were infested with L2 larvae (6 to 8 per well). The samples were assessed for mortality and growth inhibition in comparison to untreated samples 4 days after infestation.

[2] = system: Plutella xylostella (Diamond Back Moth); assay: Plutella xylostella feeding/contact activity, 24-well artificial diet; settings: 192 h, read-out: control in at least one of the two categories (mortality or growth inhibition)
Description: 24-well microtiter plates with artificial diet were treated with aqueous test solutions prepared from 10,000 ppm DMSO stock solutions by pipetting. After drying, Plutella eggs were pipetted through a plastic stencil onto a gel blotting paper and the plate was closed with it. The samples were assessed for mortality and growth inhibition in comparison to untreated samples 8 days after infestation.

[3] = system: Plutella xylostella (Diamond Back Moth); assay: Plutella xylostella feeding/contact activity, 96-well artificial diet; settings: 216 h, application rate 500 ppm, 9 days after infestation
Description: 1, 2, 3, 4, 17, 19, 23, 26, 39, 41, 42, 54, 55, 56 Plutella xylostella (Diamond Back Moth):Feeding/Contact Activity 96-well microtiter plates containing artificial diet were treated with aqueous test solutions, prepared from 10,000 ppm DMSO stock solutions, by a liquid handling robot. After drying, eggs (˜30 per well) were infested onto a netted lid which was suspended above the diet. The eggs hatch and L1 larvae move down to the diet. The samples were assessed for mortality 9 days after infestation.

[4] = system: Euschistus heros (Neotropical Brown Stink Bug); assay: Euschistus heros feeding/contact activity; settings: 120 h, read-out: control in at least one of the two categories (mortality or growth inhibition)
Description: Soybean leaves on agar in 24-well microtiter plates were sprayed with aqueous test solutions prepared from 10,000 ppm DMSO stock solutions. After drying the leaves were infested with N2 nymphs. The samples were assessed for mortality and growth inhibition 5 days after infestation.

[5] = system: Myzus persicae (Green Peach Aphid); assay: Myzus persicae feeding activity (sucrose solution, Parafilm); settings: 120 h, test rate 12.5 ppm, in sucrose solution, 5 days after infestation
Description: Test compounds prepared from 10,000 ppm DMSO stock solutions were applied by pipette into 24-well microtiter plates and mixed with sucrose solution. The plates were closed with a stretched Parafilm. A plastic stencil with 24 holes was placed onto the plate and infested pea seedlings were placed directly on the Parafilm. The infested plate was closed with a gel blotting paper and another plastic stencil and then turned upside down. The samples were assessed for mortality 5 days after infestation.

[6] = system: Thrips tabaci (Onion thrips); assay: Thrips tabaci feeding/contact activity; settings: foliar, 144 h, read-out: control in at least one of the two categories (mortality or anti-feeding)
Description: Sunflower leaf discs were placed on agar in 24-well microtiter plates and sprayed with aqueous test solutions prepared from 10,000 ppm DMSO stock solutions. After drying the leaf discs were infested with a thrips population of mixed ages. The samples were assessed for mortality, and anti-feeding 6 days after infestation.

[7] = system: Spodoptera littoralis (Egyptian Cotton Leaf Worm); assay: Spodoptera littoralis feeding/contact activity; settings: foliar, 72 h, read-out: control in at least one of the three categories (mortality or growth inhibition or anti-feeding)
Description: Cotton leaf discs were placed onto agar in 24-well microtiter plates and sprayed with aqueous test solutions prepared from 10,000 ppm DMSO stock solutions. After drying the leaf discs were infested with five L1 larvae. The samples were assessed for mortality, anti-feeding and growth inhibition 3 days after infestation.

[8] = system: Myzus persicae (Green Peach Aphid); assay: Myzus persicae systemic activity; settings: 144 h, test rate 24 ppm, roots of pea seedlings in test solution, 6 days
Description: Roots of pea seedlings infested with an aphid population of mixed ages were placed directly into aqueous test solutions prepared from 10,000 DMSO stock solutions. The samples were assessed for mortality 6 days after placing seedlings into test solutions.

[9] = system: Myzus persicae (Green Peach Aphid); assay: Myzus persicae feeding/contact activity; settings: foliar, 144 h, application rate 200 ppm, sunflower leaf discs sprayed, 6 days after infestation
Description: Sunflower leaf discs were placed onto agar in a 24-well microtiter plate and sprayed with aqueous test solutions prepared from 10,000 ppm DMSO stock solutions. After drying, the leaf discs were infested with an aphid population of mixed ages. The samples were assessed for mortality 6 days after infestation.

[10] = system: Spodoptera littoralis (Egyptian Cotton Leaf Worm); assay: Spodoptera littoralis systemic activity (lettuce); settings: 144 h, test rate 12.5 ppm, root uptake in lettuce, 6 days after infestation, read-out: control in at least one of the three categories (mortality or growth inhibition or anti-feeding)
Source text: Test compounds were applied by pipette prepared from 10,000 ppm DMSO stock solutions into 24-well plates and mixed with agar. Lettuce seeds were placed onto the agar and the multi well plate was closed by another plate which contained also agar. After 7 days the compound was absorbed by the roots and the lettuce grew into the lid plate. The lettuce leaves were then cut off into the lid plate. Spodoptera eggs were pipetted through a plastic stencil onto a humid gel blotting paper and the lid plate was closed with it. The samples were assessed for mortality, anti-feeding and growth inhibition 6 days after infestation.

[11] = application rate 200 ppm, L2 larvae, 4 days after infestation
[12] = application rate 200 ppm, 24-well artificial diet, 8 days after infestation
[13] = application rate 200 ppm, N2 nymphs on soybean leaves, 5 days after infestation
[14] = application rate 200 ppm, sunflower leaf discs, 6 days after infestation
[15] = application rate 200 ppm, L1 larvae on cotton leaf discs, 3 days after infestation

COc1cnc(-n2ncnc2C(C)N(CC2CC2)C(=O)c2cc(C(F)(F)F)cc(C(F)(F)F)c2)nc1 (stereo not shown) [Compound 24]
≥ 80%: percent control (mortality or growth inhibition) at 200 ppm [1, 11] | percent control (mortality or growth inhibition) at 200 ppm [2, 12]

CC(c1ncnn1-c1ncccn1)N(CC1CC1)C(=O)c1cncc(C(F)(F)F)c1 (stereo not shown) [Compound 47]
≥ 80%: percent control (mortality or growth inhibition) at 200 ppm [1, 11] | mortality at 500 ppm [3] | percent control (mortality or growth inhibition) at 200 ppm [4, 13]

CC(c1ncnn1-c1ncccn1)N(CC1CC1)C(=O)c1cc(C(F)(F)F)nc(C(F)(F)F)c1 (stereo not shown) [Compound 41]
≥ 80%: mortality at 12.5 ppm [5] | percent control (mortality or growth inhibition) at 200 ppm [1, 11] | mortality at 500 ppm [3] | percent control (mortality or growth inhibition) at 200 ppm [2, 12] | percent control (mortality or growth inhibition) at 200 ppm [4, 13] | percent control (mortality, anti-feedant effect or growth inhibition) at 200 ppm [6, 14] | percent control (mortality, anti-feedant effect or growth inhibition) at 200 ppm [7, 15]

COC(=O)c1nc(C(C)NC(=O)c2cc(C(F)(F)F)cc(C(F)(F)F)c2)n(-c2ncccn2)n1 (stereo not shown) [Compound 7]
≥ 80%: percent control (mortality or growth inhibition) at 200 ppm [1, 11] | mortality at 500 ppm [3] | percent control (mortality or growth inhibition) at 200 ppm [2, 12] | percent control (mortality, anti-feedant effect or growth inhibition) at 200 ppm [6, 14] | percent control (mortality, anti-feedant effect or growth inhibition) at 200 ppm [7, 15]

CC(c1ncnn1-c1ncccn1)N(CCF)C(=O)c1cc(C(F)(F)F)cc(C(F)(F)F)c1 (stereo not shown) [Compound 56]
≥ 80%: mortality at 12.5 ppm [5] | percent control (mortality or growth inhibition) at 200 ppm [1, 11] | mortality at 24 ppm [8] | mortality at 500 ppm [3] | percent control (mortality or growth inhibition) at 200 ppm [2, 12] | mortality at 200 ppm [9] | percent control (mortality, anti-feedant effect or growth inhibition) at 12.5 ppm [10] | percent control (mortality or growth inhibition) at 200 ppm [4, 13] | percent control (mortality, anti-feedant effect or growth inhibition) at 200 ppm [7, 15]

CC(c1ncnn1-c1ncccn1)N(CCC(F)(F)F)C(=O)c1cc(C(F)(F)F)cc(C(F)(F)F)c1 (stereo not shown) [Compound 55]
≥ 80%: mortality at 12.5 ppm [5] | percent control (mortality or growth inhibition) at 200 ppm [1, 11] | mortality at 500 ppm [3] | percent control (mortality or growth inhibition) at 200 ppm [2, 12] | mortality at 200 ppm [9] | percent control (mortality, anti-feedant effect or growth inhibition) at 12.5 ppm [10] | percent control (mortality or growth inhibition) at 200 ppm [4, 13] | percent control (mortality, anti-feedant effect or growth inhibition) at 200 ppm [6, 14] | percent control (mortality, anti-feedant effect or growth inhibition) at 200 ppm [7, 15]

CC(c1ncnn1-c1ncccn1)N(CC1CC1)C(=O)c1cc(Br)cc(C(F)(F)F)c1 (stereo not shown) [Compound 19]
≥ 80%: mortality at 12.5 ppm [5] | percent control (mortality or growth inhibition) at 200 ppm [1, 11] | mortality at 500 ppm [3] | percent control (mortality or growth inhibition) at 200 ppm [2, 12] | percent control (mortality or growth inhibition) at 200 ppm [4, 13] | percent control (mortality, anti-feedant effect or growth inhibition) at 200 ppm [7, 15]

CC(c1ncnn1-c1ccccn1)N(CC1COC1)C(=O)c1cc(C(F)(F)F)cc(C(F)(F)F)c1 (stereo not shown) [Compound 62]
≥ 80%: percent control (mortality or growth inhibition) at 200 ppm [1, 11]

CC(c1ncnn1-c1ncccn1)N(C[Si](C)(C)C)C(=O)c1cc(C(F)(F)F)cc(C(F)(F)F)c1 (stereo not shown) [Compound 16]
≥ 80%: percent control (mortality or growth inhibition) at 200 ppm [1] | percent control (mortality or growth inhibition) at 200 ppm [2] | percent control (mortality or growth inhibition) at 200 ppm ([4]; in Glycine max) | percent control (mortality, anti-feedant effect or growth inhibition) at 200 ppm [6] | percent control (mortality, anti-feedant effect or growth inhibition) at 200 ppm [7]

CC(c1ncnn1-c1ncccn1)N(CC1CC1)C(=O)c1cc(C#N)cc(C(F)(F)F)c1 (stereo not shown) [Compound 42]
≥ 80%: mortality at 12.5 ppm [5] | percent control (mortality or growth inhibition) at 200 ppm [1, 11] | mortality at 24 ppm [8] | mortality at 500 ppm [3] | percent control (mortality or growth inhibition) at 200 ppm [2, 12] | percent control (mortality or growth inhibition) at 200 ppm [4, 13] | percent control (mortality, anti-feedant effect or growth inhibition) at 200 ppm [6, 14] | percent control (mortality, anti-feedant effect or growth inhibition) at 200 ppm [7, 15]

CC(c1ncnn1-c1ncccn1)N(CC1CC1)C(=O)c1cc(Cl)cc(C(F)(F)F)c1 (stereo not shown) [Compound 23]
≥ 80%: mortality at 12.5 ppm [5] | percent control (mortality or growth inhibition) at 200 ppm [1, 11] | mortality at 500 ppm [3] | percent control (mortality or growth inhibition) at 200 ppm [2, 12] | percent control (mortality, anti-feedant effect or growth inhibition) at 12.5 ppm [10] | percent control (mortality, anti-feedant effect or growth inhibition) at 200 ppm [7, 15]

CC(c1ncnn1-c1ncccn1)N(CC1CC1)C(=O)c1cccc(C#N)c1 (stereo not shown) [Compound 25]
≥ 80%: percent control (mortality or growth inhibition) at 200 ppm [1, 11]

CC(c1ncnn1-c1ncccn1)N(CCCF)C(=O)c1cc(C(F)(F)F)cc(C(F)(F)F)c1 (stereo not shown) [Compound 54]
≥ 80%: mortality at 12.5 ppm [5] | percent control (mortality or growth inhibition) at 200 ppm [1, 11] | percent control (mortality or growth inhibition) at 200 ppm [2, 12] | mortality at 200 ppm [9] | percent control (mortality, anti-feedant effect or growth inhibition) at 200 ppm [7, 15]

C[C@@H](c1ncnn1-c1ncccn1)N(C)C(=O)c1cc(C(F)(F)F)cc(C(F)(F)F)c1 [Compound 6]
≥ 80%: percent control (mortality or growth inhibition) at 200 ppm [1, 11] | percent control (mortality or growth inhibition) at 200 ppm [2, 12] | percent control (mortality, anti-feedant effect or growth inhibition) at 200 ppm [7, 15]

CCOC(OCC)c1nc(C(C)NC(=O)c2cc(C(F)(F)F)cc(C(F)(F)F)c2)n(-c2ncccn2)n1 (stereo not shown) [Compound 8]
≥ 80%: percent control (mortality or growth inhibition) at 200 ppm [1, 11] | mortality at 500 ppm [3] | percent control (mortality or growth inhibition) at 200 ppm [2, 12]
